What was measured:
[1] = target: T1, pfNDH2 (Plasmodium falciparum, UniProt Q8I302); test: Kinetic properties of purified pfNDH2 with electron-accepting substrates; format: biochemical; details: in vitro, absence of membrane components
[2] = target: T2, pfDHOD (Plasmodium falciparum, UniProt Q08210); test: biochemical
T2 sequence (Q08210 24-569): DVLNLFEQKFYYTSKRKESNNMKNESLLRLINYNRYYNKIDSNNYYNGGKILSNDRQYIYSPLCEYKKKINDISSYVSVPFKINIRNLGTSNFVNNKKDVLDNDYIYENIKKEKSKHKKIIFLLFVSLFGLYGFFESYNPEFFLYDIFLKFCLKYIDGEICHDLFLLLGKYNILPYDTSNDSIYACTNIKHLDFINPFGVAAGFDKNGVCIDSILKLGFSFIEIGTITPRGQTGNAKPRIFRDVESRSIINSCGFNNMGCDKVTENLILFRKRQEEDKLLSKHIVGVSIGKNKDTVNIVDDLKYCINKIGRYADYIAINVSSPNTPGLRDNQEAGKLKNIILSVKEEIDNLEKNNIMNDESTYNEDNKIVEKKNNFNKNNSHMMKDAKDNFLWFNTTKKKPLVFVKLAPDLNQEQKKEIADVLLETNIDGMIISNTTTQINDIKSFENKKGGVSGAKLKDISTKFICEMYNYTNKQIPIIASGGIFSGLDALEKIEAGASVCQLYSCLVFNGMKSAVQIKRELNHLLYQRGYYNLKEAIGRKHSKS

[3] = target: T1, pfNDH2; test: biochemical; format: biochemical; details: for inhibition of pfNDH2 activity (in words): purified recombinant pfNDH2, concentrations of up to 10 µM
[4] = system: P. falciparum DD2-scDHOD; format: cell-based, Plasmodium falciparum; details: drug concentration of up to 10 µM
[5] = system: O=C1C=CC(=Nc2cc(Cl)c(O)c(Cl)c2)C=C1; test: Kinetic properties of purified pfNDH2 with electron-accepting substrates; format: biochemical, Plasmodium falciparum; details: pH 8.0; 100.0 °C

Compound | utilization as electron acceptor substrate by pfNDH2 (in words) [1] | IC50 [2] | IC50 [3] | further results
COC1=C(OC)C(=O)C(C/C=C(\C)CC/C=C(\C)CC/C=C(\C)CCC=C(C)C)=C(C)C1=O [CoQ4] | not efficiently utilized |  |  | 
C[C@@H]1CC[C@H]2[C@@H](C)C(=O)O[C@@H]3O[C@@]4(C)CC[C@@H]1[C@]32OO4 [Artemisinin] |  | > 10 µM | > 10 µM | inhibition of pfNDH2 activity (in words) [3]: did not perturb catalysis
CCCCCCCCCCCCc1cc(=O)c2ccccc2n1O [HDQ, 1-hydroxy-2-dodecyl-4(1H)quinolone] |  |  | > 10 µM | proliferation of the scDHOD-expressing transgenic strain (in words) [4]: unaffected; inhibition of pfNDH2 activity (in words) [3]: do not inhibit
C=C(C)[C@H]1Cc2c(ccc3c2O[C@@H]2COc4cc(OC)c(OC)cc4[C@@H]2C3=O)O1 [Rotenone] |  | > 10 µM | > 10 µM | 
CCCCCCCCCCC1=C(C)C(=O)C(OC)=C(OC)C1=O [CoQD] | not efficiently utilized |  |  | 
COC1=C(OC)C(=O)C(C)=CC1=O [CoQ0] | detectable catalysis |  |  | 
pfNDH2 (Plasmodium falciparum 3D7) |  |  |  | Km [5]: 4.6 µM; kcat [5]: 0.0317 s⁻¹
COC1=C(OC)C(=O)C(CC=C(C)C)=C(C)C1=O [CoQ1] | detectable catalysis |  |  | 
[Cl-].c1ccc([I+]c2ccccc2)cc1 [IDP, diphenyliodonium chloride] |  | > 10 µM | > 10 µM | inhibition of pfNDH2 activity (in words) [3]: do not inhibit
O=c1cc(-c2ccccc2)oc2ccccc12 [Flavone] |  | > 10 µM | > 10 µM | 
O=C1C(O)=C([C@H]2CC[C@H](c3ccc(Cl)cc3)CC2)C(=O)c2ccccc21 [Atovaquone] |  | > 10 µM | > 10 µM | 

Source: PMC4422330 (Bioorganic & medicinal chemistry letters, 2008)
